Source: ChEMBL document CHEMBL1149393, “Single-site chemical modification at C10 of the baccatin III core of paclitaxel and Taxol C reduces P-glycoprotein interactions in bovine brain microvessel endothelial cells” (Bioorg Med Chem Lett, 2006)
pEC50: −log10 of the molar value.

Columns and labels:
Tubulin (Homo sapiens) [1] = molecular target: T1, Tubulin (Homo sapiens) (UniProt P68371+Q9H4B7+P0DPH7+P68366+Q13509+Q71U36+P04350+Q3ZCM7+P07437+P68363+Q9BQE3+Q6PEY2+Q13885+Q9BVA1+Q9BUF5); assay: Cytotoxicity against human breast cancer MCF7 cell line relative to paclitaxel; format: functional, cell-based
Tubulin (Homo sapiens) [2] = molecular target: T1, Tubulin (Homo sapiens); assay: Activity in tubulin assembly assay relative to paclitaxel; format: functional
Tubulin (Homo sapiens) [3] = molecular target: T1, Tubulin (Homo sapiens); assay: Cytotoxicity against multidrug resistant breast cancer MCF7/ADR cell line relative to paclitaxel; format: functional, cell-based; settings: NCI/ADR-RES
NCI/ADR-RES = assay: Cytotoxicity against multidrug resistant breast cancer MCF7/ADR cell line; format: functional; settings: Homo sapiens, read-out: ED50 (the source's name)
MCF7 = assay: Cytotoxicity against human breast cancer MCF7 cell line; format: functional; settings: read-out: ED50 (the source's name)

Structure (SMILES)	Ratio ED50 (Tubulin (Homo sapiens) [2])	Ratio ED50 (Tubulin (Homo sapiens) [1])	Ratio ED50 (Tubulin (Homo sapiens) [3])	pEC50 (NCI/ADR-RES)	pEC50 (MCF7)
CC(=O)O[C@@]12CO[C@@H]1C[C@H](O)[C@@]1(C)C(=O)[C@H](O)C3=C(C)[C@@H](OC(=O)[C@H](O)[C@@H](NC(=O)c4ccccc4)c4ccccc4)C[C@@](O)([C@@H](OC(=O)c4ccccc4)[C@H]21)C3(C)C	2.1	7.5	6.6	–	–
CCCCCC(=O)N[C@@H](c1ccccc1)[C@@H](O)C(=O)O[C@H]1C[C@@]2(O)[C@@H](OC(=O)c3ccccc3)[C@@H]3[C@]4(OC(C)=O)CO[C@@H]4C[C@H](O)[C@@]3(C)C(=O)[C@H](OC(C)=O)C(=C1C)C2(C)C	2	2.2	0.48	–	–
CC(=O)O[C@H]1C(=O)[C@@]2(C)[C@H]([C@H](OC(=O)c3ccccc3)[C@]3(O)C[C@H](OC(=O)[C@H](O)[C@@H](NC(=O)c4ccccc4)c4ccccc4)C(C)=C1C3(C)C)[C@]1(OC(C)=O)CO[C@@H]1C[C@@H]2O [PACLITAXEL]	1	–	–	8.82	8.49
CCCCCC(=O)N[C@@H](c1ccccc1)[C@@H](O)C(=O)O[C@H]1C[C@@]2(O)[C@@H](OC(=O)c3ccccc3)[C@@H]3[C@]4(OC(C)=O)CO[C@@H]4C[C@H](O)[C@@]3(C)C(=O)[C@@H](O)C(=C1C)C2(C)C	1.6	9.2	3.1	–	–
CC(=O)O[C@@]12CO[C@@H]1C[C@H](O)[C@@]1(C)C(=O)[C@@H](O)C3=C(C)[C@@H](OC(=O)[C@H](O)[C@@H](NC(=O)c4ccccc4)c4ccccc4)C[C@@](O)([C@@H](OC(=O)c4ccccc4)[C@H]21)C3(C)C	3.2	1.4	0.7	–	–

Second part, led by results:

Ratio ED50 (Tubulin (Homo sapiens) [2])	Structure (SMILES)	Ratio ED50 (Tubulin (Homo sapiens) [1])	Ratio ED50 (Tubulin (Homo sapiens) [3])	pEC50 (NCI/ADR-RES)	pEC50 (MCF7)
2.2	CCCCCC(=O)N[C@@H](c1ccccc1)[C@@H](O)C(=O)O[C@H]1C[C@@]2(O)[C@@H](OC(=O)c3ccccc3)[C@@H]3[C@]4(OC(C)=O)CO[C@@H]4C[C@H](O)[C@@]3(C)C(=O)[C@H](O)C(=C1C)C2(C)C	4.8	3.8	–	–
0.21	CCCCCC(=O)N[C@@H](c1ccccc1)[C@@H](O)C(=O)O[C@H]1C[C@@]2(O)[C@@H](OC(=O)c3ccccc3)[C@@H]3[C@]4(OC(C)=O)CO[C@@H]4C[C@H](O)[C@@]3(C)C(=O)[C@@H](OC(C)=O)C(=C1C)C2(C)C	3.2	1.6	–	–
2.1	CCCCCC(=O)N[C@@H](c1ccccc1)[C@@H](O)C(=O)O[C@H]1C[C@@]2(O)[C@@H](OC(=O)c3ccccc3)[C@@H]3[C@]4(OC(C)=O)CO[C@@H]4C[C@H](O)[C@@]3(C)C(=O)[C@@H](OC(=O)CC)C(=C1C)C2(C)C	3.8	2.9	–	–
4.1	CCC(=O)O[C@@H]1C(=O)[C@@]2(C)[C@H]([C@H](OC(=O)c3ccccc3)[C@]3(O)C[C@H](OC(=O)[C@H](O)[C@@H](NC(=O)c4ccccc4)c4ccccc4)C(C)=C1C3(C)C)[C@]1(OC(C)=O)CO[C@@H]1C[C@@H]2O	2.6	1.1	–	–
0.8	CC(=O)O[C@@H]1C(=O)[C@@]2(C)[C@H]([C@H](OC(=O)c3ccccc3)[C@]3(O)C[C@H](OC(=O)[C@H](O)[C@@H](NC(=O)c4ccccc4)c4ccccc4)C(C)=C1C3(C)C)[C@]1(OC(C)=O)CO[C@@H]1C[C@@H]2O	0.7	1.3	–	–
